Here are results for one molecule from paper PMC10905675, “INX-315, a Selective CDK2 Inhibitor, Induces Cell Cycle Arrest and Senescence in Solid Tumors” (Cancer Discovery, 2023).

Where two headings read alike, the source gives them in different places.

The nature of data set [1]: Body weight of tumor-bearing mice. The format is in vivo. To be noted: mice treated with INX-315, CCNE1-amplified models. Here is the method: PDX models were performed by Crown Biosciences (OV5398, GA0103, and GA0114) or XenoSTART (ST4316B). Tumor fragments from stock mice were harvested and implanted subcutaneously into the flank of NOD/SCID mice (OV5398, RRID:IMSR_JAX:001303), BALB/c nude mice (GA0103 and GA0114, RRID:IMSR_RJ:BALB-C-NUDE), or athymic nude mice (Crl:NU(NCr)-Foxn1nu, RRID:IMSR_CRL:490) (ST4316B). For CDX models, female athymic nude mice (Crl:NU(NCr)-Foxn1nu, RRID:IMSR_CRL:490) were inoculated with 1 × 10^7 50% Cultrex OVCAR3 cells in the flank. Experiments performed using MMTV-rtTA/tetO-HER2 mice were performed at the Peter MacCallum Cancer Centre. Tumor formation was induced and sustained in female mice with doxycycline as previously described ([33]). Randomization and treatment in all models began when median tumor volume reached a maximum of 300 mm^3.
Mice were treated via oral gavage. INX-315 was prepared weekly in 100% PEG400; abemaciclib was prepared as previously described ([33]) and ribociclib (Selleckchem, S7440) was prepared weekly in 0.5% methyl cellulose. To generate abemaciclib-resistant MMTV-rtTA/tetO-HER2 tumors, mice were treated continuously with abemaciclib at a dose of 75 mg/kg until tumors resumed growth as described in text. […]

Data set [2] has as its system five lines without CCNE1 amplification (ovarian cancer). Kind of data set: CellTiter Glo viability assay. The format is cell-based. Conditions: 144 h, six days. A general note: ATP-based viability assays read luminescence as a measure of living cells.
Data set [3] addresses CSF1R (Homo sapiens, UniProt P07333). In words: SelectScreen follow-up dose-response. The format is biochemical. To be noted: dose-response 50 pmol/L to 1 µmol/L. An excerpt: (§1) INX-315 was first evaluated in the SelectScreen Biochemical Kinase Profiling at Thermo Fisher Scientific (Madison, WI). The primary screen consisted of INX-315 dosed at a single concentration of 100 nmol/L in 1% DMSO across each platform within the SelectScreen array of assays, LanthaScreen Eu Kinase Binding Assay; AdaptaScreen; and Z'LyteScreen using preestablished conditions at Thermo Fisher Scientific as shown in Supplementary Table S2. […] The follow-up screen consisted of 10-point dose–response curves for INX-315 from 1 µmol/L to 0.0495 nmol/L.

Data set [4] relates to all other targets. In words: SelectScreen follow-up dose-response. Format: biochemical. Conditions: dose-response 50 pmol/L to 1 µmol/L; kinases with ≥80% inhibition other than CDK2 complexes and CSF1R.
Excerpt: as §1

The target in data set [5] is CDK2/cyclin A1/E1/O (Homo sapiens, UniProt P24941). In words: SelectScreen follow-up dose-response. Format: biochemical. To be noted: dose-response 50 pmol/L to 1 µmol/L.
Excerpt: as §1

The test system of data set [6] is OVCAR3 cells. Kind of data set: Cell cycle flow cytometry. The format is cell-based. Conditions: 24 hours, as little as 30–100 nmol/L.
A short description of data set [7]: pKa. The format is physicochemical.
The subject of data set [8] is all CCNE1-amplified lines. Kind of data set: CellTiter Glo viability assay. The format is cell-based. To be noted: 144 h. Here is the method:
(§2) An exception to this is MCF7PDRCl5-1 cells which were first cultured for 5 days without palbociclib then plated as described. MCF7PDRCl5-1 cells were treated with either a dose curve of the indicated CDK4/6i or a dose curve of INX-315 + 1 µmol/L of the indicated CDK4/6i. Cell viability was determined using the CellTiter-Glo assay (Promega, G9241) following manufacturer's instructions. Plates were processed on either BioTek Synergy2 multi-mode (Agilent) or ClarioSTAR (BMG Labtech) plate readers. T47D and MCF7 cells were seeded into […] plates using BioTek 406 (Aglient) and treated with a ten-point dose concentration from 10 µmol/L to 0.3 nmol/L of INX-315 for 2× doubling times. Plates were fixed with 4% PFA and stained with Rhodamine-Phalloidin (Bio-Trend, 00027) and DAPI (5 mg/mL, Invitrogen, catalog no. D1306). Plates were imaged using CellInsight CX7 LZR and DAPI-positive cells were counted using Thermo Fisher Scientific HCS Studio Cell Analysis Software.

The subject of data set [9] is palbociclib-resistant MCF7 cells. In words: CellTiter Glo viability assay. Format: cell-based. To be noted: Homo sapiens. On the procedure:
as §2

The subject of data set [10] is MKN1. Kind of data set: CellTiter Glo viability assay. The format is cell-based. Conditions: Homo sapiens, MKN-1, 144 h; MKN1 gastric carcinoma, 6 days. Here is the method:
as §2

For data set [11], the system named is MCF7 Abema-resistant. Kind of data set: Cell number dose-response. To be noted: Homo sapiens, MCF7, read-out: IC50 (nmol/L): MCF7. Format: cell-based.
Excerpt: (§3) MCF7 abemaciclib-resistant cells were generated by continuous treatment with abemaciclib at a concentration of 250 nmol/L for 72 days, followed by 500 nmol/L for 48 days. MCF7 fulvestrant-resistant cells were generated by continuous treatment of 100 nmol/L Fulvestrant for 125 days. MCF7 abemaciclib/fulvestrant-resistant cells were generated by treating abemaciclib-resistant cells continuously with 100 nmol/L fulvestrant for 137 days. T47D abemaciclib-resistant lines were generated by continuous treatment with abemaciclib at a concentration of 500 nmol/L for 73 days. T47D fulvestrant–resistant cells were generated by continuous treatment with 100 nmol/L fulvestrant for 68 days. T47D abemaciclib/fulvestrant-resistant cells were generated by treating abemaciclib-resistant cells with continuous treatment of 100 nmol/L Fulvestrant for 60 days. Resistant cell lines were cultured in medium containing drug(s) that the line is resistant to and further authenticated using short tandem repeat profiling.
as §2

In data set [12] the test system is T47D Abema-resistant. In words: Cell number dose-response. The format is cell-based. To be noted: Homo sapiens, read-out: IC50 (nmol/L): T47D.
Excerpt: as §3, §2

The subject of data set [13] is MCF7 Fulv-resistant. Kind of data set: Cell number dose-response. Conditions: Homo sapiens, MCF7, read-out: IC50 (nmol/L): MCF7. Format: cell-based.
Excerpt: as §3, §2

The subject of data set [14] is T47D Parent. Kind of data set: Cell number dose-response. Format: cell-based. Conditions: Homo sapiens.
Excerpt: as §3, §2

The subject of data set [15] is T47D Fulv-resistant. In words: Cell number dose-response. Format: cell-based. To be noted: Homo sapiens, read-out: IC50 (nmol/L): T47D.
Excerpt: as §3, §2

CSF1R, sequence (P07333 20-972): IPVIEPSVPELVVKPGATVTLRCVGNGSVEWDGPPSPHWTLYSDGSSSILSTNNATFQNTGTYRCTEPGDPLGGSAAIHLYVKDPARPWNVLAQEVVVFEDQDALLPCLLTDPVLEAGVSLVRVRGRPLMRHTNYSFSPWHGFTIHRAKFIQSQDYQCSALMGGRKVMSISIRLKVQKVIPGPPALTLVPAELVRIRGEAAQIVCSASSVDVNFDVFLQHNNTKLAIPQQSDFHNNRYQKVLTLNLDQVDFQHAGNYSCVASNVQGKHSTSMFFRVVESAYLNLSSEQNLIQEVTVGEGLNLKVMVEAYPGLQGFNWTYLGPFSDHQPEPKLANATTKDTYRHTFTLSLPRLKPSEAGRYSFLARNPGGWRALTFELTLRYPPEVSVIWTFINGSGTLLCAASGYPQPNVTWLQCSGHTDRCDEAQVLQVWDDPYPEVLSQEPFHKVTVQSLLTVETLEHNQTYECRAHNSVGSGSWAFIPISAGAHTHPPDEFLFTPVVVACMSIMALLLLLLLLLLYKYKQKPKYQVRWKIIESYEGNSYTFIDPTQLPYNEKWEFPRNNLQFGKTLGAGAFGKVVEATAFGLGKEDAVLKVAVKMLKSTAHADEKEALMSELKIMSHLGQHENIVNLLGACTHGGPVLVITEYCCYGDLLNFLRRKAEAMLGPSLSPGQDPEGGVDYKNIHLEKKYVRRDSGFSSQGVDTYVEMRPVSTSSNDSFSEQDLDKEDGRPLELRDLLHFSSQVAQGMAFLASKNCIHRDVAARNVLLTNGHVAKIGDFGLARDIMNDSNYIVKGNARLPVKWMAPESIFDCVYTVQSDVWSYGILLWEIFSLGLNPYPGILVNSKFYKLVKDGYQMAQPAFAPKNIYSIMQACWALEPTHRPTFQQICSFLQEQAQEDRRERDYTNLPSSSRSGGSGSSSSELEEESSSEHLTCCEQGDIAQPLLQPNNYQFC

Take `NS(=O)(=O)c1ccc(Nc2ncc3cc4n(c3n2)C2(CCCCC2)C(=O)NN4)cc1` [INX-315]: the “loss of body weight during the studies” value in [1] is recorded as at most 5%. For the same molecule, the IC50 is 159 to 3560 nM in data set [2] (read-out: IC50, range); 1440 nM in data set [2] (read-out: mean IC50); 2.29 nM in [3]; over 10 nM in data set [4]; at most 4 nM in [5]; 36 nM in [8]. Besides, the IC50 was 906 nM in [9] (MCF7, Supp Fig S9D, DMSO + INX-315, read-out: INX-315 IC50); under 900 nM in data set [9] (MCF7, cultured out of CDK4/6i, read-out: IC50 to INX-315); 28 nM in data set [9] (MCF7, with abemaciclib (1 µmol/L), read-out: IC50 to INX-315); 23 nM in data set [9] (MCF7, with lerociclib (1 µmol/L), read-out: IC50 to INX-315); 14 nM in data set [9] (MCF7, with palbociclib (1 µmol/L), read-out: IC50 to INX-315); 44 nM in [10]. In addition, the IC50 in data set [11] amounted to 45 nmol/L; in data set [12], 7.4 nmol/L; in data set [13], 3470 nmol/L; in data set [14] (read-out: IC50 (nmol/L): T47D, Parent + abema: 500 nmol/L abemaciclib concurrently) it was 332 nmol/L; in [14] (read-out: IC50 (nmol/L): T47D, Parent cells in DMSO), 360 nmol/L; in data set [15] it was 106 nmol/L. Also, the cell cycle effect result in data set [6] is listed as “potent G1 arrest”. Further, the results for the pKa in data set [7] (read-out: pKa (acidic)) and in data set [7] (read-out: pKa (basic)) were 10.4 and 5.08, respectively.

What is called pKa is the negative logarithm of the acid dissociation constant.
